The subject of test [1] is Botrytis cinerea. Briefly: Liquid culture test in well plates, Botrytis cinerea (gray mould), growth inhibition. It is filed as cell-based. Particulars: 72 hours, 24° C. As to the method:
(§1) Mycelia fragments or conidia suspensions of a fungus, prepared either freshly from liquid cultures of the fungus or from cryogenic storage, are directly mixed into nutrient broth. DMSO solutions of the test compound (max. 10 mg/mL) is diluted with 0.025% Tween20 by factor 50 and 10 µL of this solution is pipetted into a microtiter plate (96-well format). […] The test plates are incubated in the dark at 24° C. and 96% relative humidity (rh). The inhibition of fungal growth is determined photometrically and visually after 3 - 7 days, depending on the pathosystem, and percent antifungal activity relative to the untreated check is calculated.
Conidia of the fungus from cryogenic storage were directly mixed into nutrient broth (PDB potato dextrose broth). After placing a DMSO solution of the test compositions into a microtiter plate (96-well format), the nutrient broth containing the fungal spores was added.

The subject of test [2] is Alternaria solani. Briefly: Liquid culture test in well plates, Alternaria solani (early blight of tomato/potato), growth inhibition. It counts as cell-based. Particulars: 48 hours, 24° C. How it is done: as §1
Conidia of the fungus from cryogenic storage were directly mixed into nutrient broth (PDB potato dextrose broth). After placing a DMSO solution of the test compositions into a microtiter plate (96-well format) the nutrient broth containing the fungal spores was added.

The text below walks through data of patent publication US20230210113A1, “FUNGICIDAL COMPOSITIONS” (SYNGENTA CROP PROTECTION AG, priority 2020, published 2023).

As usually defined, the inhibition is the share of the control response that was lost under treatment.

On to `O=C1c2ccccc2C(=O)N1SC(Cl)(Cl)Cl` [Folpet, folpet, reference compound], for which the inhibition at 0.25 ppm in test [1] (Botrytis cinerea, Folpet 0.25 ppm alone, read-out: (B) inhibition (%)) came to 21%; in test [2] (Alternaria solani, Folpet 0.25 ppm alone, read-out: (B) inhibition (%)) it was 3%. The inhibition at 0.5 ppm in test [1] (Botrytis cinerea, Folpet 0.50 ppm alone, read-out: (B) inhibition (%)) turned out to be 44%. Further, in test [1] (Botrytis cinerea, Folpet 1.00 ppm alone, read-out: (B) inhibition (%)), the inhibition at 1 ppm worked out at 78%.
With Aureobasidin A, the “(A) inhibition (%)” value in test [1] (Aureobasidin A 0.0012 ppm alone) amounted to 6%; in test [1] (Aureobasidin A 0.0025 ppm alone), 6%; in test [1] (Aureobasidin A 0.0050 ppm alone), 4%; in test [1] (Aureobasidin A 0.0100 ppm alone) it was 34%; in test [1] (Aureobasidin A 0.0200 ppm alone), 41%; in test [2] (Aureobasidin A 0.02 ppm alone), 24%.
